Laboratory results taken from PubChem BioAssay AID256 (DTP/NCI, 2004).
Inconclusive results and toxic doses are left out.

System: CD2F1 mice, L1210 leukemia ip, survival T/C
Assay: NCI In Vivo Anticancer Drug Screen. Data for tumor model L1210 Leukemia (intraperitoneal) in CD2F1 (CDF1) mice
Conditions: higher = longer survival
Summary of the method: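 Tumor-bearing mice (transplanted tumor) were split into treated and vehicle control groups, and the measured endpoint of each treated group was divided by that of its vehicle controls.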

[1] = endpoint: mean survival time, dose: 100.0 mg/kg/injection, schedule: Q04DX002 (ip), vehicle: saline
[2] = endpoint: mean survival time, dose: 200.0 mg/kg/injection, schedule: Q04DX002 (ip), vehicle: saline
[3] = endpoint: mean survival time, dose: 100.0 mg/kg/injection, schedule: Q01DX009 (ip), vehicle: saline with Tween-80
[4] = endpoint: mean survival time, dose: 100.0 mg/kg/injection, schedule: Q04DX003 (ip), vehicle: saline with Tween-80
[5] = endpoint: mean survival time, dose: 200.0 mg/kg/injection, schedule: Q01DX009 (ip), vehicle: saline with Tween-80
[6] = endpoint: mean survival time, dose: 200.0 mg/kg/injection, schedule: Q04DX003 (ip), vehicle: saline with Tween-80
[7] = endpoint: mean survival time, dose: 400.0 mg/kg/injection, schedule: Q04DX003 (ip), vehicle: saline with Tween-80
[8] = endpoint: mean survival time, dose: 75.0 mg/kg/injection, schedule: Q01DX001 (ip), vehicle: saline
[9] = endpoint: mean survival time, dose: 400.0 mg/kg/injection, schedule: Q01DX009 (ip), vehicle: saline with Tween-80
[10] = endpoint: mean survival time, dose: 100.0 mg/kg/injection, schedule: Q04DX003 (ip), vehicle: Klucel (hydroxypropylcellulose) (HPC)
[11] = endpoint: mean survival time, dose: 200.0 mg/kg/injection, schedule: Q04DX003 (ip), vehicle: Klucel (hydroxypropylcellulose) (HPC)
[12] = endpoint: mean survival time, dose: 400.0 mg/kg/injection, schedule: Q04DX003 (ip), vehicle: Klucel (hydroxypropylcellulose) (HPC)
[13] = endpoint: mean survival time, dose: 100.0 mg/kg/injection, schedule: Q01DX009 (ip), vehicle: saline
[14] = endpoint: mean survival time, dose: 200.0 mg/kg/injection, schedule: Q01DX009 (ip), vehicle: saline
[15] = endpoint: mean survival time, dose: 400.0 mg/kg/injection, schedule: Q01DX009 (ip), vehicle: saline

For `O=CN1CCCCC1`, the T/C [1] was 97 % of control and the T/C [2] was 108 % of control.

For `CCCCCCCCCCC(=O)OCC1OC2C(Oc3nc(=N)ccn32)C1OC(=O)CCCCCCCCCC` (configuration not stated), the T/C (endpoint: mean survival time, dose: 12.5 mg/kg/injection, schedule: Q01DX009 (ip), vehicle: water) was 156 % of control, the T/C (endpoint: mean survival time, dose: 25.0 mg/kg/injection, schedule: Q01DX009 (ip), vehicle: water) was 202 % of control and the T/C (endpoint: mean survival time, dose: 50.0 mg/kg/injection, schedule: Q01DX009 (ip), vehicle: water) was 242 % of control. For the same compound, the T/C (endpoint: mean survival time, dose: 100.0 mg/kg/injection, schedule: Q01DX009 (ip), vehicle: water) was 118 % of control.

`CCCCCCCCCCCCCCCc1cc(=O)n(-c2ccc(C(=O)OCC)cc2)n1C` was tested, and the T/C [3] was 92 % of control, the T/C [4] was 97 % of control and the T/C [5] was 86 % of control. The T/C [6] was 88 % of control and the T/C [7] was 100 % of control.

With `C[n+]1ccc2c(Br)cccc2c1` the T/C [8] was 101 % of control.

`CN(C)Nc1cc(N)c(N=Nc2ccccc2)c(=O)[nH]1` was tested, and the T/C (endpoint: mean survival time, dose: 100.0 mg/kg/injection, schedule: Q01DX001 (ip), vehicle: Klucel (hydroxypropylcellulose) (HPC)) was 107 % of control, the T/C (endpoint: mean survival time, dose: 200.0 mg/kg/injection, schedule: Q01DX001 (ip), vehicle: Klucel (hydroxypropylcellulose) (HPC)) was 97 % of control and the T/C (endpoint: mean survival time, dose: 400.0 mg/kg/injection, schedule: Q01DX001 (ip), vehicle: Klucel (hydroxypropylcellulose) (HPC)) was 117 % of control.

With `Cc1c[n+]([O-])cc(=O)[nH]1` the T/C [3] was 97 % of control, the T/C [4] was 96 % of control and the T/C [5] was 97 % of control. The T/C [6] was 100 % of control, the T/C [9] was 95 % of control and the T/C [7] was 100 % of control.

With `O=C(O)c1c2ccccc2cc2ccccc12` the T/C [10] was 101 % of control, the T/C [11] was 95 % of control and the T/C [12] was 90 % of control.

With `ClC(Cl)c1nc2ccccc2[nH]1` the T/C (endpoint: mean survival time, dose: 6.25 mg/kg/injection, schedule: Q01DX001 (ip), vehicle: Klucel (hydroxypropylcellulose) (HPC)) was 89 % of control, the T/C (endpoint: mean survival time, dose: 12.5 mg/kg/injection, schedule: Q01DX001 (ip), vehicle: Klucel (hydroxypropylcellulose) (HPC)) was 96 % of control and the T/C (endpoint: mean survival time, dose: 25.0 mg/kg/injection, schedule: Q01DX001 (ip), vehicle: Klucel (hydroxypropylcellulose) (HPC)) was 89 % of control.

`O=CO.[Cu+2]` was tested, and the T/C (endpoint: mean survival time, dose: 5.0 mg/kg/injection, schedule: Q01DX001 (ip), vehicle: saline) was 90 % of control and the T/C (endpoint: mean survival time, dose: 10.0 mg/kg/injection, schedule: Q01DX001 (ip), vehicle: saline) was 98 % of control.

With `O=C(Nc1cccc(O)c1)c1ccc([N+](=O)[O-])cc1` the T/C [10] was 97 % of control, the T/C [11] was 107 % of control and the T/C [12] was 108 % of control.

`O=[N+]([O-])c1ccc(N2CCOCC2)c([N+](=O)[O-])c1` was tested, and the T/C [3] was 103 % of control, the T/C [4] was 97 % of control and the T/C [5] was 100 % of control. For the same compound, the T/C [6] was 103 % of control, the T/C [9] was 97 % of control and the T/C [7] was 100 % of control.

With `O=C1C(Br)=C(Br)C(=O)C(Br)=C1Br` the T/C (endpoint: mean survival time, dose: 50.0 mg/kg/injection, schedule: Q01DX009 (ip), vehicle: saline with Tween-80) was 91 % of control, the T/C [3] was 94 % of control and the T/C [5] was 86 % of control.

`COC1OC(CO)C(NC(N)=O)C1O` (configuration not stated) was tested, and the T/C (endpoint: mean survival time, dose: 100.0 mg/kg/injection, schedule: Q01DX001 (ip), vehicle: saline) was 101 % of control, the T/C (endpoint: mean survival time, dose: 200.0 mg/kg/injection, schedule: Q01DX001 (ip), vehicle: saline) was 100 % of control and the T/C (endpoint: mean survival time, dose: 400.0 mg/kg/injection, schedule: Q01DX001 (ip), vehicle: saline) was 95 % of control.

With `NC(=S)c1ncn(C2OC(CO)C(O)C2O)c1N` (configuration not stated) the T/C [1] was 115 % of control, the T/C [2] was 110 % of control and the T/C (endpoint: median survival time, dose: 25.0 mg/kg/injection, schedule: Q01DX005 (ip), vehicle: saline with Tween-80) was 111 % of control. For the same compound, the T/C (endpoint: median survival time, dose: 25.0 mg/kg/injection, schedule: Q01DX005 (ip), vehicle: saline) was 113 % of control, the T/C (endpoint: median survival time, dose: 25.0 mg/kg/injection, schedule: Q01DX009 (ip), vehicle: saline with Tween-80) was 122 % of control and the T/C (endpoint: median survival time, dose: 25.0 mg/kg/injection, schedule: Q01DX009 (ip), vehicle: saline) was 115 % of control. The T/C (endpoint: median survival time, dose: 50.0 mg/kg/injection, schedule: Q01DX005 (ip), vehicle: saline with Tween-80) was 120 % of control, the T/C (endpoint: median survival time, dose: 100.0 mg/kg/injection, schedule: Q01DX005 (ip), vehicle: saline) was 166 % of control and the T/C (endpoint: median survival time, dose: 100.0 mg/kg/injection, schedule: Q01DX009 (ip), vehicle: saline with Tween-80) was 160 % of control. For the same compound, the T/C (endpoint: median survival time, dose: 200.0 mg/kg/injection, schedule: Q01DX005 (ip), vehicle: saline with Tween-80) was 171 % of control, the T/C (endpoint: median survival time, dose: 200.0 mg/kg/injection, schedule: Q01DX005 (ip), vehicle: saline) was 166 % of control and the T/C (endpoint: median survival time, dose: 200.0 mg/kg/injection, schedule: Q01DX009 (ip), vehicle: saline with Tween-80) was 159 % of control. The T/C (endpoint: median survival time, dose: 200.0 mg/kg/injection, schedule: Q01DX009 (ip), vehicle: saline) was 157 % of control, the T/C (endpoint: median survival time, dose: 400.0 mg/kg/injection, schedule: Q01DX005 (ip), vehicle: saline with Tween-80) was 161 % of control and the T/C (endpoint: median survival time, dose: 400.0 mg/kg/injection, schedule: Q01DX005 (ip), vehicle: saline) was 180 % of control. The T/C (endpoint: median survival time, dose: 400.0 mg/kg/injection, schedule: Q01DX009 (ip), vehicle: saline with Tween-80) was 160 % of control and the T/C (endpoint: median survival time, dose: 400.0 mg/kg/injection, schedule: Q01DX009 (ip), vehicle: saline) was 155 % of control.

`O=C1C(=O)c2ccccc2C(O)=C1CNCCO` was tested, and the T/C (endpoint: mean survival time, dose: 100.0 mg/kg/injection, schedule: Q01DX001 (ip), vehicle: saline with Tween-80) was 97 % of control, the T/C (endpoint: mean survival time, dose: 200.0 mg/kg/injection, schedule: Q01DX001 (ip), vehicle: saline with Tween-80) was 94 % of control and the T/C (endpoint: mean survival time, dose: 400.0 mg/kg/injection, schedule: Q01DX001 (ip), vehicle: saline with Tween-80) was 94 % of control.

In the case of `O=[N+]([O-])O.[Zn+2].c1ccncc1`, the T/C [8] is reported as 108 % of control.

`CC1CC(O)C(=O)C(O[C@@H]2C[C@@H]3CC[C@@H]4[C@H](CC[C@]5(C)C(C6=CC(=O)OC6)CC[C@]45O)[C@@]3(C=O)C[C@H]2O)O1` (some centres not stated) was tested, and the T/C (endpoint: mean survival time, dose: 6.25 mg/kg/injection, schedule: Q01DX001 (ip), vehicle: saline with Tween-80) was 104 % of control and the T/C (endpoint: mean survival time, dose: 12.5 mg/kg/injection, schedule: Q01DX001 (ip), vehicle: saline with Tween-80) was 104 % of control.

For `[Cl-].[NH-]CCN(CC[NH-])CCN.[O-][Cl+3]([O-])([O-])O.[O-][Cl+3]([O-])([O-])O.[Pt+2]`, the T/C (endpoint: mean survival time, dose: 12.5 mg/kg/injection, schedule: Q04DX003 (ip), vehicle: saline with Tween-80) was 97 % of control.

With `NC(=S)N/N=C\c1ncccc1O` the T/C (endpoint: mean survival time, dose: 25.0 mg/kg/injection, schedule: Q03HX024 (ip), vehicle: saline) was 120 % of control.

For `Cc1ccc(C2(C(=O)O)CC2)cc1`, the T/C [4] was 98 % of control, the T/C [6] was 98 % of control and the T/C [7] was 96 % of control.

With `O=C(O)C1C2CC3C(OC(=O)C31)C2Br` (configuration not stated) the T/C (endpoint: mean survival time, dose: 100.0 mg/kg/injection, schedule: Q04DX003 (ip), vehicle: saline) was 105 % of control, the T/C (endpoint: mean survival time, dose: 200.0 mg/kg/injection, schedule: Q04DX003 (ip), vehicle: saline) was 96 % of control and the T/C (endpoint: mean survival time, dose: 400.0 mg/kg/injection, schedule: Q04DX003 (ip), vehicle: saline) was 102 % of control.

In the case of `O.O=C(O)CN(CCN(CC(=O)O)CC(=O)O)CC(=O)O.[Rh+2]`, the T/C [13] is reported as 100 % of control, the T/C [14] is reported as 94 % of control and the T/C (endpoint: mean survival time, dose: 200.0 mg/kg/injection, schedule: Q04DX003 (ip), vehicle: saline sonified) is reported as 95 % of control. The T/C [15] was 96 % of control.

`Cn1nc(N)c2ncc(-c3ccc(Cl)cc3)nc21` was tested, and the T/C (endpoint: mean survival time, dose: 100.0 mg/kg/injection, schedule: Q04DX003 (ip), vehicle: alcohol) was 91 % of control, the T/C (endpoint: mean survival time, dose: 200.0 mg/kg/injection, schedule: Q04DX003 (ip), vehicle: alcohol) was 89 % of control and the T/C (endpoint: mean survival time, dose: 400.0 mg/kg/injection, schedule: Q04DX003 (ip), vehicle: alcohol) was 91 % of control.

For `N#CCCN=C1C=CC(=C(c2ccc(NCCC#N)cc2)c2ccccc2Cl)C=C1`, the T/C (endpoint: mean survival time, dose: 200.0 mg/kg/injection, schedule: Q04DX002 (ip), vehicle: saline with Tween-80) was 93 % of control and the T/C (endpoint: mean survival time, dose: 400.0 mg/kg/injection, schedule: Q04DX002 (ip), vehicle: saline with Tween-80) was 103 % of control.

For `CCOC(=O)C(F)(F)F`, the T/C [13] was 95 % of control, the T/C [14] was 103 % of control and the T/C [15] was 95 % of control.
